Literature values, collected in US8748086B2, “Aqueous solution for the preservation of tissues and organs” (Universidad de Barcelona, priority 2008, dated 2014).

Assays:
hearts = details: tacrolimus in UW preservation solution; Rajesh et al. 2003
[1] = system: non-steatotic and steatotic livers; details: prolonged ischemic periods; Ben Mosbah et al. 2006

| SMILES | effect on preservation of hearts (hearts) | capacity of the preservation solution to protect livers [1] |
| --- | --- | --- |
| C=CC[C@@H]1/C=C(\C)C[C@H](C)C[C@H](OC)[C@H]2O[C@@](O)(C(=O)C(=O)N3CCCC[C@H]3C(=O)O[C@H](/C(C)=C/[C@@H]3CC[C@@H](O)[C@H](OC)C3)[C@H](C)[C@@H](O)CC1=O)[C@H](C)C[C@@H]2OC [tacrolimus, Tacrolimus] | failed to have any effect on preservation |  |
| COc1ccc(CN2CCNCC2)c(OC)c1OC [trimetazidine] |  | improved the capacity of this standard preservation solution to protect |
